This experiment concerns the target cytochrome bo oxidase (Escherichia coli, UniProt P0ABI8). The experiment is classed as biochemical.

Molecules are shown by their SMILES.

Sequence of cytochrome bo oxidase (P0ABI8 whole entry): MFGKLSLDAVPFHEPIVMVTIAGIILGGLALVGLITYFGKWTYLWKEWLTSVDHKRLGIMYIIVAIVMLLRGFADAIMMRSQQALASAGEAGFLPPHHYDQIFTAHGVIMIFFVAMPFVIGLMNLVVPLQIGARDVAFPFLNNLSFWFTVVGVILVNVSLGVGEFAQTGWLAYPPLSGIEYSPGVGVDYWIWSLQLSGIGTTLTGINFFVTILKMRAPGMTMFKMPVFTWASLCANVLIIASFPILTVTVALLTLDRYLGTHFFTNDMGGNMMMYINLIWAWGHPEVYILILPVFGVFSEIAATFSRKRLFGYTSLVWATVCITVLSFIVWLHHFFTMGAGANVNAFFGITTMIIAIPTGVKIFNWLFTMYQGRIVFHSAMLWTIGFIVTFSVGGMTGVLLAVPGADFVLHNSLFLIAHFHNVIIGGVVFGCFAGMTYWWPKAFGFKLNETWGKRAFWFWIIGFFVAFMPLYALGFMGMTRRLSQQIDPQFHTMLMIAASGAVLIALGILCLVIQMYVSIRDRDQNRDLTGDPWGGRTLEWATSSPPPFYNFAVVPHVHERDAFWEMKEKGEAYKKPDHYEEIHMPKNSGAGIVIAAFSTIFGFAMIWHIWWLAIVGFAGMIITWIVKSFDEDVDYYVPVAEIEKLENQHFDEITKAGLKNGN
Sequence of cytochrome bo oxidase (P0ABJ1 25-315 partner): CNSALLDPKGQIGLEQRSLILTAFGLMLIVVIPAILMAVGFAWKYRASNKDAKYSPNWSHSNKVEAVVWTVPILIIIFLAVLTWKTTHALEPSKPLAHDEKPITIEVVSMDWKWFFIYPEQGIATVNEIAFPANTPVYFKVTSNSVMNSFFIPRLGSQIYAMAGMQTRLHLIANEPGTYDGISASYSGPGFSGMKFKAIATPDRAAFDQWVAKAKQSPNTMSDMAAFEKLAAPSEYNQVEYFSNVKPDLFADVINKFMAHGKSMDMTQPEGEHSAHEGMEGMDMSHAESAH
Sequence of cytochrome bo oxidase (P0ABJ3 whole entry partner): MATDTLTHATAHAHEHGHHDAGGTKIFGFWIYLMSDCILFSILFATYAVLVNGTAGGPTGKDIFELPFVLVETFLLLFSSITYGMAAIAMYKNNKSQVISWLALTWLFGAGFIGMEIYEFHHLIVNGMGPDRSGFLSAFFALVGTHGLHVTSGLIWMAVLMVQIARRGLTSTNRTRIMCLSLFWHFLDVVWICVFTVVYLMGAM
Sequence of cytochrome bo oxidase (P0ABJ6 whole entry partner): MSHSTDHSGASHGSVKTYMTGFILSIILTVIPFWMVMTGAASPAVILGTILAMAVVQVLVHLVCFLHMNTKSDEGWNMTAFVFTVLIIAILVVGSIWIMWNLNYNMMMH

`S` [hydrogen sulfide]: the IC50 (usually the concentration that inhibits the measured activity by half) is approximately 5 µM.

The values above are taken from PMC4925259 (Molecular microbiology, 2016).
